The record followed here is EPA's ToxValDB 9.5.

One data set has as its system Apis mellifera. As to conditions: acute, mortality.
A further data set relates to Rattus norvegicus. As to conditions: for LD50: acute, mortality.
Another data set has as its system Colinus virginianus. As to conditions: acute; oral; mortality.
The subject of another data set is Sus scrofa. As to conditions: for LEL: subchronic, diet.
Another data set relates to Homo sapiens. As to conditions: clinical; for LEL: no effects.
Setting [1] is: duration: 6 weeks, oral, M/F, Large White x Landrace, clinical chemistry.
[2] abbreviates: duration: 12 weeks, oral, M, clinical chemistry.

Where “and” joins values, the source holds several entries; their conditions need not be identical. Equal values may be shown once. Where only a bound is given, the exact number is not on record here.

As for `CSCCC(N)C(=O)[O-].O=S(=O)([O-])O.[Zn+2]` (stereo unspecified), the LEL in the data set on Gallus gallus (subchronic, duration: 35 days, M, Chicken, no effects) stood at 120 mg/kg-day.

As to `C[C@@H]1O[C@H](O[C@H]2[C@H](O[C@H]3[C@@H](OC[C@H]4O[C@@H](O[C@@H]([C@H](O)[C@@H](O)CO)[C@H](O)CO)[C@H](O)[C@@H](O)[C@@H]4O[C@@H]4O[C@H](CO[C@H]5OC[C@@H](O)[C@H](O)[C@H]5O)[C@@H](O)[C@H](O)[C@H]4O)OC[C@@H](O)[C@@H]3O)O[C@H](CO)[C@H](O)[C@@H]2O)[C@@H](O)[C@H](O)[C@@H]1O`, the LD50 with Apis mellifera (oral, unspecified) was greater than 100 µg/piece; in the data set with Rattus norvegicus (oral) it was greater than 5000 mg/kg-day. The term NOAEL denotes the highest dose or exposure tested at which no adverse effect was seen. In the data set on Mus musculus (short-term, duration: 28 days, oral, capsule, M/F, other), `CC12CCC(CC1)C(C)(C)O2` [1,8-Cineol] yielded a no-observed-adverse-effect level (NOAEL) of 562 mg/kg-day. For the molecule `CC1=CC(=O)CC(C)(C)[C@@]1(O)/C=C/C(C)=C\C(=O)O` [(+)-(S)-Abscisic acid], the LD50 in the data set on Colinus virginianus is greater than 2250 mg/kg-day; in the data set with Rattus norvegicus (oral), greater than 5000 mg/kg-day. This molecule also came in with an NOAEC with Rattus norvegicus (reproduction developmental, no effects) of no less than 1360 mg/kg-day. Turning to `O=S(=O)([O-])c1ccc(N=Nc2cc(S(=O)(=O)[O-])c3ccccc3c2O)c2ccccc12.[Na+].[Na+]` [Azorubine], the NOAEL amounted to 375 mg/kg-day with Mus musculus (chronic, hematological) and 400 mg/kg-day with Rattus norvegicus (chronic, M/F, body weight).

For `C[N+](C)(C)CC(=O)O.[Cl-]` [Betaine hydrochloride], the LEL with Sus scrofa (setting [1]) amounted to 10000 mg/kg-day. Take `C[N+](C)(C)CC(=O)[O-]` [Betaine]: the LEL turned out to be 10000 mg/kg-day with Sus scrofa (setting [1]); 4000 mg/day in the data set with Homo sapiens (duration: 3 months, oral); 4000 mg/day with Homo sapiens (duration: 6 months, oral).

Regarding `C=C1CC[C@H](O)C/C1=C/C=C1\CCC[C@]2(C)[C@@H]([C@H](C)CCCC(C)(C)O)CC[C@@H]12` [Calcifediol], the LEL stood at 0.5 mg/kg-day in the data set with Sus scrofa (duration: 42 days, oral, Not specified, no effects) and 0.07 mg/kg-day in the data set on Gallus gallus (subchronic, duration: 35 days, oral, diet, M/F, no effects).

For the molecule `CN/C(=N\[N+](=O)[O-])NCc1cnc(Cl)s1` [Clothianidin], the LD50 in the data set on Apis mellifera (dermal) was 0.0275 µg/piece and 0.0258 µg/piece; with Apis mellifera (duration: 48 hours, dermal), 0.0275 µg/piece; with Apis mellifera (duration: 48 hours, oral, unspecified), 0.00379 µg/piece; with Apis mellifera (oral, unspecified) it was 0.00379 µg/piece. Regarding `[Cu+2].[O-2]` [Cupric oxide], in the data set with Homo sapiens (setting [2]), the no-observed-adverse-effect level (NOAEL) was 10 mg/day. Broadly, the LOAEL is the lowest tested level that showed an adverse finding. On to `CC(=O)OC[C@]12CCC(C)=C[C@H]1O[C@@H]1[C@H](O)[C@@H](OC(C)=O)[C@@]2(C)[C@]12CO2` [Diacetoxyscirpenol], for which the lowest observed adverse effect level (LOAEL) was 0.08 mg/kg-day with Sus scrofa (short-term, oral, gavage, Not specified, histopathology: neoplastic); 0.01 mg/kg-day in the data set on Gallus gallus (subchronic, duration: 35 days, M, Chicken, histopathology: neoplastic); 0.031 mg/kg-day in the data set on Canidae (acute, injection, intravenous, Beagle, hematological). For the same molecule, the no observed adverse effect level (NOAEL) in the data set with Homo sapiens (injection, intravenous, hematological) came out at 0.065 mg/kg-day; with Homo sapiens (injection, intravenous, other) it was 0.032 mg/kg-day. For `[Cl-].[Cu+2].[Cu+2].[OH-].[OH-].[OH-]` [Dicopper chloride trihydroxide], the LEL was 390 mg/kg-day in the data set with Gallus gallus (chronic, duration: 16 weeks, oral, diet, no effects); 600 mg/kg-day in the data set with Gallus gallus (short-term, duration: 21 days, oral, diet, M/F, food consumption); 450 mg/kg-day and 300 mg/kg-day in the data set on Gallus gallus (short-term, duration: 21 days, oral, diet, clinical chemistry).

`CCCCCCCC/C=C\CCCCCCCCCCCC(=O)O` [Erucic acid]: the no-observed-adverse-effect level (NOAEL) with Sus scrofa (short-term, duration: 14 days, M/F, Not specified, histopathology: nonneoplastic) was determined as 700 mg/kg-day; with Rattus norvegicus (short-term, duration: 7 days, oral, diet, M, Sprague-Dawley, histopathology: nonneoplastic), 700 mg/kg-day. In addition, the LOAEL in the data set with Gallus gallus (chronic, histopathology: nonneoplastic) was found to be 20 mg/kg-day. As for `O=C1OC2(c3ccccc31)c1cc(I)c([O-])c(I)c1Oc1c2cc(I)c([O-])c1I.[Na+].[Na+]` [FD&C Red 3], the no-observed-adverse-effect level (NOAEL) with Canidae (chronic, duration: 2 years, oral, diet, M/F, Beagle, clinical chemistry) is 10000 mg/kg-day; in the data set on Rattus norvegicus (repeat dose other, oral, diet, other), 125 mg/kg-day; with Homo sapiens (duration: 14 days, oral, capsule, M, clinical chemistry), 1 mg/kg-day. With `[Fe+2]` [Fe +2 ion], the no observed adverse effect level (NOAEL) in the data set with Mus musculus (developmental, development) came to 380 mg/kg-day; in the data set on Rattus norvegicus (developmental, development), 380 mg/kg-day. Regarding `Cc1cc(OC(C)C)ccc1C(=O)C(C)(C)NC(=O)c1sccc1C` [Isofetamid], the NOAEL in the data set on Canidae (chronic, duration: 1 years, Dog Other, body weight) turned out to be 1.57 mg/kg-day; in the data set with Canidae (subchronic, duration: 90 days, oral, Dog Other, body weight), 5.34 mg/kg-day. Regarding `Cl.Cl.[Cu+2].[NH-][C@@H](CCCCN)C(=O)[O-].[NH-][C@@H](CCCCN)C(=O)[O-]` [L-Lysine, copper complex], the no observed adverse effect level (NOAEL) with Homo sapiens (setting [2]) was 10 mg/day.

Molecule `[Cl-].[Mn+2].[Mn+2].[OH-].[OH-].[OH-]` [Manganese chloride hydroxide (Mn2Cl(OH)3)] gave an LEL with Gallus gallus (subchronic, duration: 35 days, oral, diet, no effects) of 1920 mg/kg-day. As for `CN1CCCC1=O` [N-Methyl-2-pyrrolidone], the NOAEL with Mus musculus (chronic, M/F, B6C3F1, organ weight) was found to be 90 mg/kg-day. As to `COc1ccc(CCC(=O)c2c(O)cc(O[C@@H]3O[C@H](CO)[C@@H](O)[C@H](O)[C@H]3O[C@@H]3O[C@@H](C)[C@H](O)[C@@H](O)[C@H]3O)cc2O)cc1O` [Neohesperidin dihydrochalcone], the NOAEL in the data set with Rattus norvegicus (repeat dose other, no effects) came to 500 mg/kg-day. Consider `O=C1CN(/N=C/c2ccc([N+](=O)[O-])o2)C(=O)N1` [Nitrofurantoin], for which the LEL in the data set with Rattus norvegicus (reproduction developmental, oral, reproduction) amounted to 10 mg/kg-day. In the data set with Mus musculus (acute, oral, gavage, M, ICR, clinical signs), `C=C(/C=C\C[C@@H](O)[C@@H](O)[C@H](O)C/C=C/C=C\[C@@H](O)C[C@@H]1O[C@H](C[C@@H](O)[C@H](O)C[C@H]2O[C@H]([C@H](O)[C@H](O)CC[C@H](O)/C=C/[C@H](C)[C@@H](O)C[C@]3(O)O[C@H](C[C@@H](O)CCCCCCC[C@@]45C[C@@H](C)C[C@@](C)(O4)[C@@H](C[C@@H](C)CCCCC[C@@H](O)[C@H](O)[C@H](O)[C@@H](O)[C@H](O)[C@H]4O[C@H](C[C@H](O)[C@H](O)/C(C)=C/[C@H](O)C[C@@H](C)[C@H](O)C(=O)N/C=C/C(=O)NCCCO)[C@H](O)[C@@H](O)[C@@H]4O)O5)[C@H](O)[C@@H](O)[C@H]3O)C[C@@H](O)[C@@H]2O)[C@@H](O)[C@H](O)[C@H]1O)CC[C@H](O)[C@@H](O)[C@H](O)[C@H](C)C[C@H]1O[C@H](/C=C\[C@@H](O)[C@H](O)C[C@@H]2C[C@@H]3C[C@H](O2)[C@@H](CC[C@H]2O[C@H](CN)C[C@H]2O)O3)[C@@H](O)[C@H](O)[C@H]1O` [Palytoxin] came in with an LOAEL of 0.2 mg/kg-day.

`C1CCNCC1` [Piperidine] had an NOAEL in the data set with Rattus norvegicus (subchronic, duration: 90 days, oral, M/F, Sprague-Dawley, clinical chemistry) of 5 mg/kg-day.

For `[Cl-].[K+]` [Potassium chloride], the LEL with Homo sapiens (duration: 4 weeks, oral, F) is 40 mg/kg-day. `O=C(/C=C/c1ccc(O)c(O)c1)O[C@H](Cc1ccc(O)c(O)c1)C(=O)O` [Rosmarinic acid] gave an NOAEL in the data set on Rattus norvegicus (subchronic, duration: 90 days, oral, gavage, M/F, Sprague-Dawley, no effects) of 300 mg/kg-day. On to `C=C1CCC2(C(C)C)CC12` (stereo unspecified) [Sabinen], for which the no observed adverse effect level (NOAEL) with Rattus norvegicus (subchronic, duration: 90 days, oral, diet, M/F, Sprague-Dawley, hematological) came to 222 mg/kg-day. `O=S([O-])S(=O)(=O)[O-].[Na+].[Na+]` [Sodium metabisulfite] gave a no observed adverse effect level (NOAEL) in the data set on Rattus norvegicus (chronic, duration: 2 years, oral, diet, M/F, histopathology: nonneoplastic) of 72 mg/kg-day. Turning to `CCCCCCCCCCCCCCCCCC(=O)OC(C)C(=O)OC(C)C(=O)[O-].[Na+]` (stereo unspecified) [Sodium stearoyl lactylate], the NOAEL in the data set on Rattus norvegicus (chronic, duration: 1 years, M/F, Wistar, no effects) stood at 2200 mg/kg-day. For `NC1=N[C@H](O)[C@H]2[C@H]3O[C@]4(O)O[C@@H]([C@@H](O)[C@@]2(N1)[C@@H]4O)[C@]3(O)CO` [Tetrodotoxin], the LEL in the data set with Mus musculus (acute, injection, intraperitoneal, no effects) was found to be 0.025 mg/kg-day. In the data set on Mus musculus (acute, oral, other), this molecule came in with an NOAEL of 0.075 mg/kg-day.

On to `Cc1ncc(C[n+]2csc(CCO)c2C)c(N)n1.Cl.[Cl-]` [Thiamine hydrochloride], for which the NOAEL in the data set on Rattus norvegicus (subchronic, duration: 90 days, oral, diet) was 36 mg/kg-day. In the data set with Rattus norvegicus (chronic, duration: 103 weeks, oral, diet, M/F, Fischer 344, no effects), `[O]=[Ti]=[O]` [Titanium dioxide] returned a no observed adverse effect level (NOAEL) of 2250 mg/kg-day. `CNC(=O)C(C)(C(C)C)C(C)C` [Trimethyl isopropyl butanamide] gave an NOEL in the data set on Rattus norvegicus (chronic, duration: 14 weeks, oral, diet, M/F, histopathology: nonneoplastic) of 5 mg/kg-day. With `COc1nc(NC(=O)NS(=O)(=O)c2ccccc2C(F)(F)F)nc(C(F)(F)F)n1` [Tritosulfuron], the NOAEL with Canidae (chronic, duration: 12 months, oral, Dog Other, organ weight) stood at 6 mg/kg-day; with Canidae (subchronic, duration: 90 days, oral, Dog Other), 15 mg/kg-day.

As to `COc1ccc(C=O)cc1OC` [Veratraldehyde], the no observed adverse effect level (NOAEL) with Rattus norvegicus (subchronic, duration: 13 weeks, oral, gavage, no effects) stood at 400 mg/kg-day. Molecule `CC(C)=CCC/C(C)=C/C=C/C(C)=C/C=C/C(C)=C/C=C/C=C(C)/C=C/C=C(C)/C=C/C=C(\C)CCC=C(C)C` [all-trans-Lycopene] showed an NOAEL in the data set with Rattus norvegicus (chronic, duration: 1 years, clinical chemistry) of 50 mg/kg-day.

With `CC1=C(/C=C/C(C)=C/C=C/C(C)=C/C=C/C=C(C)/C=C/C=C(C)/C=C/C2=C(C)CCCC2(C)C)C(C)(C)CCC1` [beta-Carotene], the LEL in the data set with Homo sapiens (duration: 5 years) is no more than 15 mg/day. On to `OC[C@H]1O[C@@H]2O[C@H]3[C@H](O)[C@@H](O)[C@@H](O[C@H]4[C@H](O)[C@@H](O)[C@@H](O[C@H]5[C@H](O)[C@@H](O)[C@@H](O[C@H]6[C@H](O)[C@@H](O)[C@@H](O[C@H]7[C@H](O)[C@@H](O)[C@@H](O[C@H]8[C@H](O)[C@@H](O)[C@@H](O[C@H]1[C@H](O)[C@H]2O)O[C@@H]8CO)O[C@@H]7CO)O[C@@H]6CO)O[C@@H]5CO)O[C@@H]4CO)O[C@@H]3CO` [beta-Cyclodextrin], for which the NOAEL in the data set on Canidae (chronic, duration: 1 years, Dog Other, clinical chemistry) was 466 mg/kg-day; with Rattus norvegicus (chronic, duration: 6 months, oral, gavage, Long-Evans, body weight) it was 600 mg/kg-day; in the data set on Rattus norvegicus (chronic, duration: 52 weeks, M/F, Sprague-Dawley, clinical chemistry) it was 654 mg/kg-day. In turn, `C=CC(C)=CCC=C(C)C` [beta-Ocimene] registered an NOAEL in the data set on Rattus norvegicus (subchronic, duration: 90 days, oral, diet, M/F, Sprague-Dawley, no effects) of 44 mg/kg-day. With `Cc1ccc(C(C)C)cc1` [p-Cymene], in the data set on Rattus norvegicus (chronic, duration: 6 months, oral, gavage, F, organ weight), the no-observed-adverse-effect level (NOAEL) came to 154 mg/kg-day.

In the case of `CC(C)(C)c1cc(O)ccc1O` [tert-Butylhydroquinone], the NOAEL in the data set on Canidae (chronic, duration: 117 weeks, oral, diet, M/F, Beagle, clinical chemistry) stood at 72 mg/kg-day.
